≈ marks a conversion by molar mass, not a printed value.
What was measured:
[1] = tested on: Trypanosoma brucei; assay: DNDI: Inhibition of Human African Trypanosomiasis, SBRI 427, in vitro; format: functional, organism-based
[2] = DNDI: Cytotoxicity against L929 mouse fibroblasts, 72 hour.; format: toxicity, cell-based; conditions: mouse, L929 mouse fibroblasts
[3] = Trypanosoma brucei, SBRI 427, read-out: IC50

Structure (SMILES) | IC50 [1, 3] [µg/mL] | IC50 at 72 h [2] [µg/mL] | IC50 [1] [µg/mL]
N#Cc1nc(-c2ccccc2)oc1N | > 5 | > 10 | –
Cc1ccc(CNC(c2nc(Cc3ccccc3)c(N3CCOCC3)o2)C2CC2)cc1 (centres undefined) | > 5 | > 10 | –
CCCCc1ccc(-c2nc(Nc3ccccn3)co2)cc1 | > 5 | > 10 | –
CCC(C)Oc1ccc(-c2nc(CNCCCN(C)C)co2)cc1 (centres undefined) | > 5 | > 10 | –
COc1ccccc1CNC(c1ccccc1)c1nc(-c2ccccc2)c(N2CCOCC2)o1 (centres undefined) | > 5 | > 10 | –
CCCCNCc1coc(-c2ccc(CCCC)cc2)n1 | 0.75 (≈ 2.62 µM) | 2.5 (≈ 8.73 µM) | –
COc1ccc(CNC(c2nc(Cc3ccccc3)c(N3CCCCC3)o2)C2CCCCC2)cc1OC (centres undefined) | > 5 | > 10 | –
COc1cccc(C(NCc2ccc(C)cc2)c2nc(Cc3ccccc3)c(N3CCOCC3)o2)c1 (centres undefined) | > 5 | > 10 | –
c1ccc(-c2nc(C(NCCCn3ccnc3)C3CC3)oc2N2CCOCC2)cc1 (centres undefined) | > 5 | > 10 | –
CCCCc1ccc(-c2nc(CNCCCN(CC)CC)co2)cc1 | 0.1 (≈ 0.291 µM) | 0.89 (≈ 2.59 µM) | –
CCCCc1ccc(-c2nc(CN3CCN(c4ccccc4)CC3)co2)cc1 | > 5 | > 10 | –
c1ccc(Cc2nc(C(NCc3ccco3)C3CC3)oc2N2CCOCC2)cc1 (centres undefined) | > 5 | > 10 | –
O=C(NCC1C(O)=C(C(=O)c2ccccc2)C(=O)N1C(=O)OCc1ccccc1)OCc1ccccc1 (centres undefined) | > 5 | 9.13 (≈ 18.2 µM) | –
Cc1ccc(CNC(c2nc(Cc3ccccc3)c(N3CCOCC3)o2)c2ccccc2C)cc1 (centres undefined) | > 5 | > 10 | –
CCCCCC(C)NCc1coc(-c2cc(Cl)ccc2O)n1 (centres undefined) | 2.46 (≈ 7.62 µM) | 2.33 (≈ 7.22 µM) | –
CCOCCCNC(c1nc(C(C)C)c(N2CCOCC2)o1)C1CC1 (centres undefined) | > 5 | > 10 | –
C/C(O)=C1/C(=O)CN(C)C1=O | > 5 | > 10 | –
Cc1ccc(CNC(CC(C)C)c2nc(-c3ccccc3)c(N3CCOCC3)o2)cc1 (centres undefined) | 4.22 (≈ 10.1 µM) | > 10 | –
Cc1ccc(CNC(c2nc(-c3ccccc3)c(N3CCOCC3)o2)C2CC2)cc1 (centres undefined) | > 5 | > 10 | –
CN(C)CCCNCc1coc(-c2ccc(OC3CCCC3)cc2)n1 | > 5 | > 10 | –
CCC(CC)Oc1ccc(-c2nc(CNCCCN(C)C)co2)cc1 | > 5 | > 10 | –
CC(C)COc1ccc(-c2nc(CNCCCN(C)C)co2)cc1 | > 5 | > 10 | –

Structure (SMILES) | IC50 [1, 3] [µg/mL] | IC50 at 72 h [2] [µg/mL] | IC50 [1] [µg/mL]
COc1ccc(CNC(CC(C)C)c2nc(C(C)C)c(N3CCOCC3)o2)cc1 (centres undefined) | > 5 | > 10 | –
CCCCCC(C)NCc1coc(-c2cccc(OCCCC)c2)n1 (centres undefined) | 1.02 (≈ 2.96 µM) | 1.7 (≈ 4.93 µM) | –
CCCCc1ccc(-c2nc(CNC3CCCCC3)co2)cc1 | 0.41 (≈ 1.31 µM) | 1.44 (≈ 4.61 µM) | –
c1ccc(-c2nc(C(NCc3ccco3)C3CC3)oc2N2CCOCC2)cc1 (centres undefined) | > 5 | > 10 | –
c1ccc(Cc2nc(C(NCc3ccc4c(c3)OCO4)C3CC3)oc2N2CCOCC2)cc1 (centres undefined) | > 5 | > 10 | –
CCCCCC(C)NCc1coc(-c2cc(C(C)=O)ccc2O)n1 (centres undefined) | 2.32 (≈ 7.02 µM) | 3.47 (≈ 10.5 µM) | –
CCCCc1ccc(-c2nc(CNCCCN3CCOCC3)co2)cc1 | 0.34 (≈ 0.951 µM) | 2.08 (≈ 5.82 µM) | –
CCC(C)C(NCc1cccc(C)c1)c1nc(-c2ccccc2)c(N2CCCCC2)o1 (centres undefined) | > 5 | > 10 | –
CCCCCC(C)NCc1coc(-c2ccc(OCCCC)c(OC)c2)n1 (centres undefined) | 0.38 (≈ 1.01 µM) | 1.48 (≈ 3.95 µM) | –
CCCCCC(C)NCc1coc(-c2ccc(OC(F)F)cc2)n1 (centres undefined) | 2.15 (≈ 6.35 µM) | 3.82 (≈ 11.3 µM) | –
CCCCCC(C)NCc1coc(-c2ccc(OC(F)(F)C(F)F)cc2)n1 (centres undefined) | 1.42 (≈ 3.66 µM) | 4.3 (≈ 11.1 µM) | –
COc1cccc(OC)c1CNCc1coc(-c2ccc(OC(C)C)cc2)n1 | 2.88 (≈ 7.53 µM) | 4.15 (≈ 10.9 µM) | –
CCCCc1ccc(-c2nc(CN3CCN(C(=O)OC(C)(C)C)CC3)co2)cc1 | > 5 | > 10 | –
COc1ccc(CNC(CC(C)C)c2nc(Cc3ccccc3)c(N3CCCCC3)o2)cc1OC (centres undefined) | > 5 | > 10 | –
CCCCCC(C)NCc1coc(-c2ccc(OCc3ccc(F)cc3)cc2)n1 (centres undefined) | 0.38 (≈ 0.958 µM) | 0.95 (≈ 2.4 µM) | –
CCCCCC(C)NCc1coc(-c2cc(C(F)(F)F)cc(C(F)(F)F)c2)n1 (centres undefined) | 2.06 (≈ 5.04 µM) | > 10 | –
CCCCc1ccc(-c2nc3ncccc3o2)cc1 | > 5 | > 10 | –
O=C1CC(=O)N(C(=O)OCc2ccccc2)C1COCc1ccccc1 (centres undefined) | > 5 | > 10 | –
CCCCCC(C)NCc1coc(-c2ccccc2C#N)n1 (centres undefined) | 3.76 (≈ 12.6 µM) | > 10 | –
Cc1ccc(/C(=N/O)NC2CCCCC2)c(Oc2cc(Cl)ccc2Cl)n1 | 1.18 (≈ 2.99 µM) | > 10 | 2.27 (≈ 5.76 µM)
CCCCCC(C)NCc1coc(-c2ccc(C)c(C)c2)n1 (centres undefined) | 0.74 (≈ 2.46 µM) | 1.86 (≈ 6.19 µM) | –
CCC(C)C(NCc1ccc(OC)c(OC)c1)c1nc(Cc2ccccc2)c(N2CCCCC2)o1 (centres undefined) | > 5 | > 10 | –

Source: ChEMBL document CHEMBL1857833, “Screening and optimization of specific chemical series against human African Trypanosomiasis (HAT)”
